In paper PMC8915600, “Optimization of experimental conditions for skin-PAMPA measurements” (ADMET & DMPK, 2020):
Like-named read-outs stand apart in the source and are kept apart here. Marks after values point to notes of the source that are not given here. Blank lines part the entries; values can stand above or below the compound they belong to.

Tests used:
[1] = skin-PAMPA permeability assay (gradient-pH, UPLC-DAD); settings: for Papp at 4 h, 50 μM / Papp at 30 min, 50 μM / Papp at 24 h, 50 μM: PAMPA
[2] = logarithm of human skin permeation coefficient, neutral form; corrected for ionization in water and for temperature at 37 °C; cited from earlier work
[3] = PAMPA
[4] = design: method as in earlier work; settings: octanol-water partition coefficient; cited from earlier work
[5] = cited from earlier work
[6] = skin-PAMPA membrane stability after pre-treatment at basic pH; settings: membrane soaked at pH 7, 8, 9, 10 for 30 min or 4 h; then assay 4 h with stirring, donor pH 5, acceptor pH 7.4; versus untreated membrane
Protocol: Then, a standard permeation assay was carried out with an incubation time of 4 h and stirring at pH 5 in the donor compartment and pH 7.4 in the acceptor compartment. Simultaneously, permeation assays were also performed without the previous soaking treatment at basic pH.

[7] = pH 7.4, log Pe, optimized assay conditions (4 h incubation, stirring), measured at the pH corresponding to the neutral form, acceptor pH 7.4
[8] = mole fraction, with stirring, 30 min incubation, neutral form
[9] = mole fraction, with stirring, 4 h incubation, neutral form
[10] = mole fraction, with stirring, 24 h incubation, neutral form
[11] = mole fraction, without stirring, 30 min incubation, neutral form
[12] = mole fraction, without stirring, 4 h incubation, neutral form
[13] = mole fraction, without stirring, 24 h incubation, neutral form
[14] = log Pe, with stirring, 4 h incubation, neutral form (donor pH 3.0, aminopyrine pH 7.0), acceptor pH 7.4, 32 °C
[15] = log Pe, without stirring, 30 min incubation, neutral form (donor pH 3.0, aminopyrine pH 7.0), acceptor pH 7.4, 32 °C
[16] = log Pe, without stirring, 4 h incubation, neutral form (donor pH 3.0, aminopyrine pH 7.0), acceptor pH 7.4, 32 °C
[17] = optimized assay conditions (4 h incubation, stirring), measured at the pH corresponding to the neutral form, acceptor pH 7.4
[18] = with stirring, 30 min incubation, neutral form (donor pH 3.0, aminopyrine pH 7.0), acceptor pH 7.4, 32 °C
[19] = log Pe, with stirring, 24 h incubation, neutral form (donor pH 3.0, aminopyrine pH 7.0), acceptor pH 7.4, 32 °C
[20] = log Pe, without stirring, 24 h incubation, neutral form (donor pH 3.0, aminopyrine pH 7.0), acceptor pH 7.4, 32 °C

Papp at 4 h, 50 μM [1, 7]: 4.07 ×10⁻⁶ cm/s
SMILES: Oc1ccccc1O [Catechol]
log Kp [2]: -5.87 cm/s

Papp at 4 h, 50 μM [1, 7]: 3.55 ×10⁻⁶ cm/s
SMILES: C[C@]12CCC(=O)C=C1CC[C@@H]1[C@@H]2CC[C@@]2(C)[C@H]1CC[C@]2(O)C(=O)CO [Cortexolone]
log Kp [2]: -7.20 cm/s

Papp at 4 h, 50 μM [1, 7]: 162 ×10⁻⁶ cm/s
SMILES: O=C(O)Cc1ccccc1Nc1c(Cl)cccc1Cl [Diclofenac]
log Kp [2]: -5.30 cm/s

SMILES: C[C@H]1O[C@@H](O[C@H]2[C@@H](O)C[C@H](O[C@H]3[C@@H](O)C[C@H](O[C@H]4CC[C@@]5(C)[C@H](CC[C@@H]6[C@@H]5CC[C@]5(C)[C@@H](C7=CC(=O)OC7)CC[C@]65O)C4)O[C@@H]3C)O[C@@H]2C)C[C@H](O)[C@@H]1O [Digitoxin]
RM (membrane retention) [1, 8]: 0.00
RM (membrane retention) [1, 9]: 0.22(±0.04)
RM (membrane retention) [1, 10]: 0.29(±0.05)
RM (membrane retention) [1, 11]: 0.00
RM (membrane retention) [1, 12]: 0.09(±0.03)
RM (membrane retention) [1, 13]: 0.25(±0.02)
log Kp [2]: -8.15 cm/s
log Pe [3]: -6.34(±0.13) cm/s

SMILES: C[C@]12CC[C@@H]3c4ccc(O)cc4CC[C@H]3[C@@H]1CC[C@@H]2O [Estradiol]
log Kp [2]: -5.61 cm/s

Papp at 4 h, 50 μM [1, 7]: 4.17 ×10⁻⁶ cm/s
SMILES: CC(=O)OCC(=O)[C@@]12OC(C)(C)O[C@@H]1C[C@H]1[C@@H]3C[C@H](F)C4=CC(=O)C=C[C@]4(C)[C@@]3(F)[C@@H](O)C[C@@]12C [Fluocinonide]

Papp at 4 h, 50 μM [1, 14]: 204 ×10⁻⁶ cm/s
Papp at 30 min, 50 μM [1, 15]: 288 ×10⁻⁶ cm/s
Papp at 4 h, 50 μM [1, 16]: 141 ×10⁻⁶ cm/s
RM (membrane retention) [1, 8]: 0.18(±0.03)
RM (membrane retention) [1, 9]: 0.00
RM (membrane retention) [1, 10]: 0.00
RM (membrane retention) [1, 11]: 0.13(±0.02)
RM (membrane retention) [1, 12]: 0.00
RM (membrane retention) [1, 13]: 0.00
log Pe [1, 17]: -3.69±0.01 cm/s
log Pe [1, 18]: -2.98(±0.13) cm/s
SMILES: CC(C(=O)O)c1ccc(-c2ccccc2)c(F)c1 (centres unmarked) [Flurbiprofen]
log Po/w [4]: 4.16
log Kp [2]: -4.72 cm/s
pKa [5]: 4.19 ^c

change of skin-PAMPA log Pe after membrane treatment at basic pH [6]: slight increase at pH 9 and 10
Papp at 4 h, 50 μM [1, 14]: 5.62 ×10⁻⁶ cm/s
Papp at 24 h, 50 μM [1, 19]: 7.59 ×10⁻⁶ cm/s
Papp at 30 min, 50 μM [1, 15]: 2.24 ×10⁻⁶ cm/s
Papp at 4 h, 50 μM [1, 16]: 4.68 ×10⁻⁶ cm/s
Papp at 24 h, 50 μM [1, 20]: 6.31 ×10⁻⁶ cm/s
Papp at 4 h, 50 μM [1, 7]: 5.25 ×10⁻⁶ cm/s
RM (membrane retention) [1, 8]: 0.06(±0.01)
RM (membrane retention) [1, 9]: 0.19(±0.01)
RM (membrane retention) [1, 10]: 0.24(±0.02)
RM (membrane retention) [1, 11]: 0.03(±0.02)
RM (membrane retention) [1, 12]: 0.16(±0.01)
RM (membrane retention) [1, 13]: 0.20(±0.02)
log Pe [1, 18]: -5.61(±0.01) cm/s
SMILES: COC1=CC(=O)C[C@@H](C)[C@]12Oc1c(Cl)c(OC)cc(OC)c1C2=O [Griseofulvin]
log Po/w [4]: 2.18
log Kp [2]: -6.44 cm/s

Papp at 4 h, 50 μM [1, 7]: 1.35 ×10⁻⁶ cm/s
SMILES: Oc1ccc(O)cc1 [Hydroquinone]
log Kp [2]: -6.31 cm/s

SMILES: CC(=O)[C@@]1(O)CC[C@H]2[C@@H]3CCC4=CC(=O)CC[C@]4(C)[C@H]3CC[C@@]21C [Hydroxyprogesterone]
log Pe [1, 17]: -4.70±0.05 cm/s
log Kp [2]: -6.30 cm/s

Papp at 4 h, 50 μM [1, 14]: 245 ×10⁻⁶ cm/s
Papp at 30 min, 50 μM [1, 15]: 257 ×10⁻⁶ cm/s
Papp at 4 h, 50 μM [1, 16]: 224 ×10⁻⁶ cm/s
RM (membrane retention) [1, 8]: 0.22(±0.03)
RM (membrane retention) [1, 9]: 0.00
RM (membrane retention) [1, 10]: 0.00
RM (membrane retention) [1, 11]: 0.19(±0.07)
RM (membrane retention) [1, 12]: 0.09(±0.03)
RM (membrane retention) [1, 13]: 0.00
log Pe [1, 17]: -3.61±0.06 cm/s
log Pe [1, 18]: -2.71(±0.04) cm/s
SMILES: CC(C)Cc1ccc(C(C)C(=O)O)cc1 (centres unmarked) [Ibuprofen]
log Kp [2]: -4.58 cm/s

change of skin-PAMPA log Pe after membrane treatment at basic pH [6]: remain constant
Papp at 4 h, 50 μM [1, 7]: 39.8 ×10⁻⁶ cm/s
SMILES: COc1ccc2c(c1)c(CC(=O)O)c(C)n2C(=O)c1ccc(Cl)cc1 [Indomethacine]
log Kp [2]: -5.39 cm/s

Papp at 4 h, 50 μM [1, 7]: 63.1 ×10⁻⁶ cm/s
SMILES: c1ccc2cnccc2c1 [Isoquinoline]
log Kp [2]: -5.11 cm/s

SMILES: CC(C(=O)O)c1cccc(C(=O)c2ccccc2)c1 (centres unmarked) [Ketoprofen]
log Kp [2]: -5.22 cm/s

SMILES: COC(=O)c1ccc(O)cc1 [Methyl 4-hydroxybenzoate]
log Kp [2]: -5.12 cm/s

Papp at 4 h, 50 μM [1, 7]: 45.7 ×10⁻⁶ cm/s
SMILES: COc1ccccc1 [Methyl phenyl ether (Anisole), Methyl phenyl ether]
log Kp [2]: -4.68 cm/s

Papp at 4 h, 50 μM [1, 7]: 21.4 ×10⁻⁶ cm/s
SMILES: CN1C(C(=O)Nc2ccccn2)=C(O)c2ccccc2S1(=O)=O [Piroxicam]
log Kp [2]: -6.02 cm/s

Papp at 4 h, 50 μM [1, 14]: 77.6 ×10⁻⁶ cm/s
Papp at 24 h, 50 μM [1, 19]: 25.7 ×10⁻⁶ cm/s
Papp at 30 min, 50 μM [1, 15]: 15.5 ×10⁻⁶ cm/s
Papp at 4 h, 50 μM [1, 16]: 13.2 ×10⁻⁶ cm/s
Papp at 24 h, 50 μM [1, 20]: 20.4 ×10⁻⁶ cm/s
Papp at 4 h, 50 μM [1, 7]: 74.1 ×10⁻⁶ cm/s
RM (membrane retention) [1, 8]: 0.50(±0.04)
RM (membrane retention) [1, 9]: 0.74(±0.01)
RM (membrane retention) [1, 10]: 0.88(±0.01)
RM (membrane retention) [1, 11]: 0.33(±0.01)
RM (membrane retention) [1, 12]: 0.62(±0.04)
RM (membrane retention) [1, 13]: 0.83(±0.02)
RM (membrane retention) ([1]; range over all incubation times (30 min, 4 h, 24 h), with and without stirring): 0.33-0.88
log Pe [1, 18]: -3.25(±0.25) cm/s
log Pe ([1]; without stirring, 4 h incubation, neutral form (donor pH 3.0, aminopyrine pH 7.0), acceptor pH 7.4, 32 °C): -4.88 cm/s
SMILES: CC(=O)[C@H]1CC[C@H]2[C@@H]3CCC4=CC(=O)CC[C@]4(C)[C@H]3CC[C@]12C [Progesterone]
log Kp [2]: -4.90 cm/s

SMILES: Nc1ccccc1N [o-Phenylenediamine]
log Pe [1, 17]: -5.42±0.02 cm/s
log Kp [2]: -6.70 cm/s

SMILES: CC(=O)CC(c1ccccc1)c1c(O)c2ccccc2oc1=O (centres unmarked) [warfarin]
change of skin-PAMPA log Pe after membrane treatment at basic pH [6]: slight increase at pH 9 and 10
